For experiment [1], the system named is MOLM-13. In words: Cell growth inhibition, 4-day proliferation assay, MOLM-13. The class given is cell-based. Conditions: Homo sapiens. As for the experimental part:
(§1) The effect of representative Compounds of the Disclosure on cell viability was determined in a 4-day proliferation assay. Cells were maintained in the appropriate culture medium with 100/0 FBS at 37° C. and an atmosphere of 5% CO2. All the cell lines were used within three months of thawing fresh vials.
(§2) In general, cells were seeded in 96-well flat bottom (Corning COSTAR, Corning, N.Y., cat #3595) or white opaque cell culture plates (BD Falcon, cat #353296) at a density of 3,000-10,000 cells/well in 75 μl of culture medium. Compounds were serially diluted in the appropriate medium, and 75 μl of the diluted compounds were added to the appropriate wells of the cell plate. After the addition of compounds, the cells were incubated at 37° C. in an atmosphere of 5% CO2 for 4 days. Cell viability was determined using the CellTiter-Glo® Luminescent Cell Viability Assay Kit (Promega, Madison, Wis.) for leukemia cells and WST (2-(2-methoxy-4-nitrophenyl)-3-(4-nitrophenyl)-5-(2,4-disulfophenyl)-2H-tetrazolium, monosodium salt) Cell Counting-8 Kit (Dojindo Molecular Technologies, Inc., Rockville, Md.) for adherent cells according to the manufacturers' instructions.
(§3) For WST assay (adherent cells), WST-8 reagent was added to each well at a final concentration of 10% (v/v), and then the plates were incubated at 37° C. for 1-2 hours for color development. The absorbance was measured at 450 nm using a SPECTRAmax PLUS plate reader (Molecular Devices, Sunnyvale, Calif.). The readings were normalized to the DMSO-treated cells and the half maximal inhibitory concentration (IC50) was calculated by nonlinear regression (four parameters sigmoid fitted with variable slope, least squares fit, and no constraint) analysis using the GraphPad Prism 5 software (GraphPad Software, La Jolla, Calif.).
(§4) For CellTiter-Glo assay (suspension cells), 100 μl of CellTiter-Glo® Reagent was added to each well, and then the plates were incubated at room temperature for 10-20 minutes. The luminescent signal was measured using a Tecan Infinite M1000 multimode microplate reader (Tecan, Morrisville, N.C.). The readings were normalized to the DMSO-treated cells and the IC50 was calculated by nonlinear regression (four parameters sigmoid fitted with variable slope, least squares fit, and no constraint) analysis using the GraphPad Prism 5 software. See US 2014/0256706.
(§5) For a number of representative compounds in Table 5, their IC50 values in cell growth inhibition activity in the RS4;11 and MOLM-13 human leukemia cell lines and the MDA-MB-231 breast cancer cell line were evaluated using the WST-8 assay described in EXAMPLE 7, with the data shown in Table 7.

The subject of experiment [2] is MDA-MB-231. In words: Cell growth inhibition, 4-day proliferation assay, MDA-MB-231. The format is cell-based. Conditions: Homo sapiens. As to the method: as §1, §2, §3, §4, §5
The mark [3] stands for this setting: MOLM-13, WST-8 assay, Table 7, read-out: Cell growth inhibition (IC50 (nM)) MOLM-13.
The mark [4] stands for this setting: MDA-MB-231, WST-8 assay, Table 7, read-out: Cell growth inhibition (IC50 (nM)) MDA-MB-231.

Where two headings read alike, the source gives them in different places.

The record followed here is US11046709B2, “Fused 1,4-diazepines as BET bromodomain inhibitors” (THE REGENTS OF THE UNIVERSITY OF MICHIGAN, priority 2017, dated 2021).

With `Cc1c(C#Cc2cncn2C)sc2c1C(c1ccc(Cl)cc1)=N[C@@H](CC(=O)N1CCN(C)CC1)c1nnc(C)n1-2` [Compound 165, (S)-2-(4-(4-chlorophenyl)-3,9-dimethyl-2-((1-methyl-1H-imidazol-5-yl)ethynyl)-6H-thieno[3,2-f][1,2,4]triazolo[4,3-a][1,4]diazepin-6-yl)-1-(4-methylpiperazin-1-yl)ethan-1-one], in experiment [1] (setting [3]), the IC50 was found to be 36.4 nM.

Take `Cc1c(C#Cc2ccccn2)sc2c1C(c1ccc(Cl)cc1)=N[C@@H](CC(=O)N1CCC(F)CC1)c1nnc(C)n1-2` [Compound 173, (S)-2-(4-(4-chlorophenyl)-3,9-dimethyl-2-(pyridin-2-ylethynyl)-6H-thieno[3,2-f][1,2,4]triazolo[4,3-a][1,4]diazepin-6-yl)-1-(4-fluoropiperidin-1-yl)ethan-1-one]: in experiment [2] (setting [4]), the IC50 is 9.67 nM.

For the molecule `Cc1nnc(C[C@@H]2N=C(c3ccc(Cl)cc3)c3c(sc(C#CC4CCCC4)c3C)-n3c(C)nnc32)o1` [Compound 146, (S)-2-((4-(4-chlorophenyl)-2-(cyclopentylethynyl)-3,9-dimethyl-6H-thieno[3,2-f][1,2,4]triazolo[4,3-a][1,4]diazepin-6-yl)methyl)-5-methyl-1,3,4-oxadiazole], the IC50 is 17.4 nM in experiment [1] (setting [3]) and 22.5 nM in experiment [2] (setting [4]).

For `Cc1c(C#Cc2cnn(CCCC(=O)O)c2)sc2c1C(c1ccc(Cl)cc1)=N[C@@H](C)c1nnc(C)n1-2` [Compound 101, (S)-4-(4-((4-(4-chlorophenyl)-3,6,9-trimethyl-6H-thieno[3,2-f][1,2,4]triazolo[4,3-a][1,4]diazepin-2-yl)ethynyl)-1H-pyrazol-1-yl)butanoic acid], the IC50 in experiment [2] (setting [4]) turned out to be 1030 ± 700 nM.

With `Cc1c(C#Cc2ccccn2)sc2c1C(c1ccc(Cl)cc1)=N[C@@H](CC(=O)N1CC(C)(O)C1)c1nnc(C)n1-2` [Compound 138, (S)-2-(4-(4-chlorophenyl)-3,9-dimethyl-2-(pyridin-2-ylethynyl)-6H-thieno[3,2-f][1,2,4]triazolo[4,3-a][1,4]diazepin-6-yl)-1-(3-hydroxy-3-methylazetidin-1-yl)ethan-1-one], the IC50 in experiment [1] (setting [3]) is 15 to 30 nM; in experiment [2] (setting [4]), 211 nM.

With `Cc1c(C#Cc2ccccn2)sc2c1C(c1ccc(Cl)cc1)=N[C@@H](CC(=O)N1CCC(C)(O)CC1)c1nnc(C)n1-2` [Compound 137, (S)-2-(4-(4-chlorophenyl)-3,9-dimethyl-2-(pyridin-2-ylethynyl)-6H-thieno[3,2-f][1,2,4]triazolo[4,3-a][1,4]diazepin-6-yl)-1-(4-hydroxy-4-methylpiperidin-1-yl)ethan-1-one], the IC50 is 43200 nM in experiment [1] (setting [3]) and over 10000 nM in experiment [2] (setting [4]).

For `Cc1c(C#Cc2cccnc2)sc2c1C(c1ccc(Cl)cc1)=N[C@@H](CC(C)C)c1nnc(C)n1-2` [Compound 106, (S)-4-(4-chlorophenyl)-6-isobutyl-3,9-dimethyl-2-(pyridin-3-ylethynyl)-6H-thieno[3,2-f][1,2,4]triazolo[4,3-a][1,4]diazepine], the IC50 amounted to 393 nM in experiment [1] (setting [3]) and 670 ± 100 nM in experiment [2] (setting [4]).

Consider `Cc1nnc(C[C@@H]2N=C(c3ccc(Cl)cc3)c3c(sc(C#CC(C)C)c3C)-n3c(C)nnc32)o1` [Compound 148, (S)-2-((4-(4-chlorophenyl)-3,9-dimethyl-2-(3-methylbut-1-yn-1-yl)-6H-thieno[3,2-f][1,2,4]triazolo[4,3-a][1,4]diazepin-6-yl)methyl)-5-methyl-1,3,4-oxadiazole], for which the figures for the IC50 in experiment [1] (setting [3]) and in experiment [2] (setting [4]) were 6 nM and 7.7 nM, respectively.

Consider `Cc1nnc(C[C@@H]2N=C(c3ccc(Cl)cc3)c3c(sc(C#CC(C)(C)C)c3C)-n3c(C)nnc32)o1` [Compound 147, (S)-2-((4-(4-chlorophenyl)-2-(3,3-dimethylbut-1-yn-1-yl)-3,9-dimethyl-6H-thieno[3,2-f][1,2,4]triazolo[4,3-a][1,4]diazepin-6-yl)methyl)-5-methyl-1,3,4-oxadiazole], for which the IC50 in experiment [1] (setting [3]) turned out to be 7.4 nM; in experiment [2] (setting [4]), 20.1 nM.

Consider `Cc1c(C#Cc2ccccn2)sc2c1C(c1ccc(Cl)cc1)=N[C@@H](CC(=O)NC1CCOCC1)c1nnc(C)n1-2` [Compound 133, (S)-2-(4-(4-chlorophenyl)-3,9-dimethyl-2-(pyridin-2-ylethynyl)-6H-thieno[3,2-f][1,2,4]triazolo[4,3-a][1,4]diazepin-6-yl)-N-(tetrahydro-2H-pyran-4-yl)acetamide], for which the results for the IC50 in experiment [1] (setting [3]) and in experiment [2] (setting [4]) were 8.4 nM and 338 nM, respectively.

As to `Cc1nnc(C[C@@H]2N=C(c3ccc(Cl)cc3)c3c(sc(C#Cc4ccc(F)cn4)c3C)-n3c(C)nnc32)o1` [Compound 140, (S)-2-((4-(4-chlorophenyl)-2-((5-fluoropyridin-2-yl)ethynyl)-3,9-dimethyl-6H-thieno[3,2-f][1,2,4]triazolo[4,3-a][1,4]diazepin-6-yl)methyl)-5-methyl-1,3,4-oxadiazole], the figures for the IC50 in experiment [1] (setting [3]) and in experiment [2] (setting [4]) were 11.3 nM and 52.6 nM, respectively.

Regarding `Cc1c(C#Cc2cnn(C)c2)sc2c1C(c1ccc(Cl)cc1)=N[C@@H](CC(=O)N1CCN(C(=O)OC(C)(C)C)CC1)c1nnc(C)n1-2` [Compound 160, tert-butyl (S)-4-(2-(4-(4-chlorophenyl)-3,9-dimethyl-2-((1-methyl-1H-pyrazol-4-yl)ethynyl)-6H-thieno[3,2-f][1,2,4]triazolo[4,3-a][1,4]diazepin-6-yl)acetyl)piperazine-1-carboxylate], the IC50 came to 8.5 nM in experiment [1] (setting [3]) and 108 nM in experiment [2] (setting [4]).

With `Cc1nnc(C[C@@H]2N=C(c3ccc(Cl)cc3)c3c(sc(C#Cc4ncccc4F)c3C)-n3c(C)nnc32)o1` [Compound 139, (S)-2-((4-(4-chlorophenyl)-2-((3-fluoropyridin-2-yl)ethynyl)-3,9-dimethyl-6H-thieno[3,2-f][1,2,4]triazolo[4,3-a][1,4]diazepin-6-yl)methyl)-5-methyl-1,3,4-oxadiazole], the IC50 was 4 to 10 nM in experiment [1] (setting [3]) and 28.9 nM in experiment [2] (setting [4]).

Turning to `Cc1c(C#Cc2cnn(CCC(=O)O)c2)sc2c1C(c1ccc(Cl)cc1)=N[C@@H](C)c1nnc(C)n1-2` [Compound 102, (S)-3-(4-((4-(4-chlorophenyl)-3,6,9-trimethyl-6H-thieno[3,2-f][1,2,4]triazolo[4,3-a][1,4]diazepin-2-yl)ethynyl)-1H-pyrazol-1-yl)propanoic acid], in experiment [2] (MDA-MB-231, read-out: Cell growth inhibition (IC50 (nM)) MDA-MB-231), the IC50 worked out at 3000 ± 300 nM.

Turning to `Cc1c(C#Cc2ccccn2)sc2c1C(c1ccc(Cl)cc1)=N[C@@H](CC(=O)N1CCCC(F)(F)C1)c1nnc(C)n1-2` [Compound 172, (S)-2-(4-(4-chlorophenyl)-3,9-dimethyl-2-(pyridin-2-ylethynyl)-6H-thieno[3,2-f][1,2,4]triazolo[4,3-a][1,4]diazepin-6-yl)-1-(3,3-difluoropiperidin-1-yl)ethan-1-one], the IC50 in experiment [1] (setting [3]) came out at 71 nM.

Regarding `Cc1c(C#Cc2ccccn2)sc2c1C(c1ccc(Cl)cc1)=N[C@@H](CC(=O)N1CCC(F)(F)C1)c1nnc(C)n1-2` [Compound 171, (S)-2-(4-(4-chlorophenyl)-3,9-dimethyl-2-(pyridin-2-ylethynyl)-6H-thieno[3,2-f][1,2,4]triazolo[4,3-a][1,4]diazepin-6-yl)-1-(3,3-difluoropyrrolidin-1-yl)ethan-1-one], the IC50 in experiment [1] (setting [3]) came out at 151 nM.

In the case of `Cc1c(C#Cc2ccc(O)cn2)sc2c1C(c1ccc(Cl)cc1)=N[C@@H](C)c1nnc(C)n1-2` [Cpd. No. 42], the IC50 was 10.6 nM in experiment [1] (MOLM-13, 96 h, read-out: Cell IC50 (nM) MOLM13) and 7.9 nM in experiment [2] (MDA-MB-231, 96 h, read-out: Cell IC50 (nM) MDA-MB-231).

Turning to `Cc1c(C#Cc2cncn2C)sc2c1C(c1ccc(Cl)cc1)=N[C@@H](CC(=O)N1CCN(C(=O)OC(C)(C)C)CC1)c1nnc(C)n1-2` [Compound 163, tert-butyl (S)-4-(2-(4-(4-chlorophenyl)-3,9-dimethyl-2-((1-methyl-1H-imidazol-5-yl)ethynyl)-6H-thieno[3,2-f][1,2,4]triazolo[4,3-a][1,4]diazepin-6-yl)acetyl)piperazine-1-carboxylate], the IC50 in experiment [1] (setting [3]) worked out at 33.1 nM; in experiment [2] (setting [4]) it was 362 nM.

`Cc1c(C#Cc2ccccn2)sc2c1C(c1ccc(Cl)cc1)=N[C@@H](CC(=O)N1CC3(CNC3)C1)c1nnc(C)n1-2` [Compound 170, (S)-2-(4-(4-chlorophenyl)-3,9-dimethyl-2-(pyridin-2-ylethynyl)-6H-thieno[3,2-f][1,2,4]triazolo[4,3-a][1,4]diazepin-6-yl)-1-(2,6-diazaspiro[3.3]heptan-2-yl)ethan-1-one]: in experiment [1] (setting [3]), the IC50 was 115 nM.
